In article PMC10669474, “An Exploration of Small Molecules That Bind Human Single-Stranded DNA Binding Protein 1” (Biology, 2023):

Key:
E. coli SSB = test system: E. coli SSB; parameters: method as in PMID 27609050; settings: ssDNA interaction; cited from earlier work
hSSB1 [1] = biological target: T1, hSSB1 (Homo sapiens, UniProt Q9BQ15); assay: AlphaLISA competition dose-response binding assay; settings: for Kd: as restated in discussion, read-out: affinity to hSSB1 in AlphaLISA binding assays; for binding to hSSB1 in the AlphaLISA: triplicate
T1 construct: 6xHis (N); made in house; host or cells: E. coli BL21 (DE3*)
Experimental: To analyse the binding of compounds to hSSB1 and design a screening assay, we used Perkin Elmer’s AlphaLISA technology. The full assay design is described in the Supplementary Information. The optimal assay conditions were determined with a series of titration matrices to be 0.5 nM hSSB1, 5 nM In3-PD-biotin, 1 nM anti-hSSB1 antibody, 10 μg/mL SA donor beads, and 5 μg/mL protein G acceptor beads in a 16 μL reaction volume. These were combined in a buffer containing 10 mM Tris (pH 7.5), 100 mM NaCl, 0.1% β-mercaptoethanol, and 0.01% IGEPAL. First, an 8 μL mix of hSSB1, anti-hSSB1 antibody, and acceptor beads was prepared, which was added to the compound of interest and incubated for 1 h. Second, an 8 μL aliquot of a solution containing In3-PD-biotin and SA donor beads was added to the well. This was incubated before imaging with an EnSight Multimode Plate Reader (PerkinElmer, Shelton, CT, USA) at 10, 60, and 120 min. The assay was designed in a competition format so that the Cheng–Prusoff equation was met and the IC50 approximated the Kd.
Dose–response curves were obtained for hit compounds and compared with TDRL-551. The same AlphaLISA competition format was used to determine the IC50/Kd of compounds binding to hSSB1. Each compound was dissolved in DMSO before being dispensed into a white 384-well microplate (PerkinElmer, Shelton, CT, USA) using a FlexDrop iQ. […]
1.1.1 Design of the AlphaLISA screening assay
To test whether the compounds bind to hSSB1 and to design an effective screening assay, we used AlphaLISA technology from Perkin Elmer. This technology involves binding a biotin-labelled control DNA oligonucleotide (btn-In3-PD) to a streptavidin-coated donor (SA-donor) bead. hSSB1 is bound to an anti-hSSB1 sheep antibody as described previously, which binds to Protein G-coated acceptor beads. When hSSB1 and btn-In3-PD bind, they bring the two beads close together, and with excitation at 680 nm by laser irradiation, the phthalocyanine in the donor bead excites ambient oxygen to a reactive form of O2. When this is within 200 nm of a europium-containing acceptor bead (during a binding event), the reactive oxygen is transferred to the thioxene derivative, producing light at 615 nm. Without the acceptor bead, oxygen returns to its ground state. This lends the assay to a competition-based format for high- […]
A titration matrix is required to optimise assay conditions to develop an AlphaLISA assay that accurately acquires results and subsequently follows the Cheng-Prusoff equation to report IC50’s as a molecule Kd. […] This is determined by finding the hook point of signal, which indicates the highest signal before the bead is saturated, after which a decrease in signal is observed. […]

hSSB1 [2] = biological target: T1, hSSB1; assay: AlphaLISA Mini Library screen; type: binding; settings: for inhibition at 10 µM: triplicate
Experimental: In parallel to the rational design of small-molecule inhibitors, we acquired access to the Open Innovation Mini Library of small compounds from Merck KGaA, Darmstadt, Germany. This library consisted of 80 compounds at 10 mM in DMSO that had been investigated against other targets, from receptor blockers to protein inhibitors. The goal of screening this library was to test various scaffolds for their affinity to hSSB1.
Using a FlexDrop iQ, 16 nL of each compound was dispensed onto a white low-volume 384-well microplate (PerkinElmer, Shelton, CT, USA) in triplicate at an assay concentration of 10 μM. In3-PS was used as the positive control binding entity at a concentration of 1 μM. The AlphaLISA assay conditions are described in Section 2.4. The hit cut-off used was an average inhibition of 30% across the three repeats. The plate was read using an EnSight Multimode Plate Reader (PerkinElmer, Shelton, CT, USA) at 10, 60, and 120 min.

hSSB1 [3] = biological target: T1, hSSB1; assay: Electrophoretic mobility shift assay (EMSA), competition with Cy5-labelled ssDNA probe; type: binding; settings: tested from 200 to 0.091 μM
Experimental: These were performed in 10 μL reactions of 10 mM Tris (pH 7.5), 100 mM NaCl, 0.01% IGEPAL, and 1 mM DTT. Two 5 μL solutions were prepared. The first mix contained hSSB1 with the compound of interest, which were incubated together for 10 min before the addition of the probe molecule, Cy5-labelled In3-PS. The combined solution was incubated for 30 min at 37 °C, before loading dye was added and the samples were loaded into 10% polyacrylamide TBE gels. These gels were run for 1.5 h in a cold room at 80 V before being imaged using a ChemiDoc Imaging System (BioRad, Hercules, CA, USA) and quantified using ImageStudio Lite (Version 5.2) software.
The optimal conditions for the EMSAs were established using a titration matrix of hSSB1 and Cy5-labelled In3-PD concentrations. Concentrations of hSSB1 from 1000 to 0.26 nM and Cy5-labelled In3-PD at 1 nM and 5 nM were tested. The final conditions were established as 15 nM hSSB1 and 1.5 nM Cy5-labelled In3-PS, where the In3-PS is 100% bound. The concentrations of the MS-ML compounds of Merck KGaA, Darmstadt, Germany, were tested from 100 to 0.046 μM, and the concentrations of the novel DAZLN compounds were tested from 200 to 0.091 μM.

U2OS cells = assay: CellTitre-Glo cytotoxicity assay; type: cell-based, human; settings: 48 h incubation, 30—0.0492 μM, CTG
Experimental: The osteosarcoma cell line U2OS was purchased from the American Type Culture Collection (ATCC) and seeded at a density of 500 cells/well in a 384-well plate. They were maintained at 37 °C in a humidified atmosphere containing 5% CO2 in Roswell Park Memorial Institute […] (RPMI) medium (ThermoFisher Scientific, Inc., Brisbane, Australia) supplemented with 10% (v/v) heat-inactivated foetal bovine serum (FBS) (ThermoFisher Scientific). A cytotoxicity assay was conducted to test the impact of the three Merck KGaA, Darmstadt, Germany, compounds (MS-ML24, MS-ML25, MS-ML26) on cell viability. Increasing concentrations of each MS-ML compound were added from […] in serial dilutions of 2.5 (n = 4). The cells were incubated with the compound for 48 h before the CellTitre-Glo (CTG) (Promega) assay was performed as per the manufacturer’s instructions. The plate was read on an EnSight Multimode Plate Reader (PerkinElmer, Shelton, CT, USA).

T1 sequence (Q9BQ15 whole entry): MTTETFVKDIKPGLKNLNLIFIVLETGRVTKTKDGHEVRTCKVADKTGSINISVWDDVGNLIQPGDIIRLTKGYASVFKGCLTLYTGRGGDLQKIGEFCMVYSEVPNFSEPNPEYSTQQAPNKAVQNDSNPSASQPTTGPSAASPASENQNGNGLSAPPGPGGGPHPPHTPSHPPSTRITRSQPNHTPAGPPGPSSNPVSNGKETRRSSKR

SMILES: O=c1cc2oc3cc(O)c(O)cc3c(-c3ccccc3O)c-2cc1O [9-hydroxyphenylfluoron]
- concentration at which 50% bound (E. coli SSB): ~ 25 μM

SMILES: CCCCCCN(Cc1ccc(C#Cc2ccc(CCCC)cc2)cc1)c1ccc(O)c(C(=O)O)c1 [MS-ML24]
- Kd (hSSB1 [1]): 143 nM
- inhibition at 10 µM (hSSB1 [2]): > 45%

SMILES: CCCCCCN(Cc1ccc(C#Cc2ccc(CCCC)cc2)cc1)C(=O)c1ccc(O)c(C(=O)O)c1 [MS-ML25]
- inhibition at 10 µM (hSSB1 [2]): > 45%

SMILES: COc1ccc2cc([C@H]3CC(c4cn(C)c5cc(OC)ccc45)=NN3)ccc2c1 [DAZLN-51]
- binding to hSSB1 in the AlphaLISA (hSSB1 [1]): no binding
- binding to hSSB1 / inhibition in the EMSA (hSSB1 [3]): no inhibition was observed

SMILES: CCCCCCN(Cc1ccc(C#Cc2ccc(CCCC)cc2)cc1)c1ccc(F)c(C(=O)O)c1 [MS-ML26]
- Kd (hSSB1 [1]): 198 nM
- result in initial screen relative to hit threshold (hSSB1 [2]; 10 μM, hit cut-off average inhibition of 30%): slightly lower than the threshold set for the screen

SMILES: CCOc1ccc2cc(C3CC(c4ccc(I)cc4)=NN3C(=O)CCCC(=O)O)c(Cl)nc2c1 (stereo not drawn) [TDRL-551]
- cytotoxic effect in U2OS cells (U2OS cells): no cytotoxic effect

SMILES: COc1ccc2cc([C@H]3CC(c4cn(C)c5cc(OC)ccc45)=NN3C(=O)CCCC(=O)NCC(=O)N3CCOCC3)ccc2c1 [DAZLN-56]
- binding to hSSB1 in the AlphaLISA (hSSB1 [1]): low level of binding
- binding to hSSB1 / inhibition in the EMSA (hSSB1 [3]): not reflected in the EMSA

SMILES: O=c1c(O)cccc2cc(O)c(O)c(O)c12 [purpurogallin]
- concentration at which 50% bound (E. coli SSB): ~ 25 μM
